Laboratory results published in patent US20090232838A1, “Ligands of melanocortin receptors” (priority 2005, published 2009).
pEC50, pKi: −log10 of the molar value.

What was measured:
hMC3-R [1] = biological target: T1, hMC3-R (Homo sapiens, UniProt P41968); assay: Radioligand binding assay, hMC3-R
T1 construct: expressed in transfected cells; host or cells: CHO-K1
Procedure: (§1) Cellular membranes used for the in vitro receptor binding assays were obtained from transgenic CHO-K1 cells stably expressing hMC-R receptor subtypes 1, 3, 4 or 5. […] The pellets were resuspended in the same buffer and centrifuged at 50,000 g for 10 minutes at approximately 4° C. The washed pellets containing the cellular membranes were stored at approximately −80° C.
(§2) Filters were washed three times with 50 mM Tris-HCl at p-H 7.4 at a temperature of approximately 0-4° C. and then assayed for radioactivity using a Packard Topcount® scintillation counter. Binding data were analyzed by computer-assisted non-linear regression analysis (XL fit; IDBS).

hMC4-R [2] = biological target: T2, hMC4-R (Homo sapiens, UniProt P32245); assay: Radioligand binding assay, hMC4-R
T2 construct: expressed in transfected cells; host or cells: CHO-K1
Procedure: as §1, §2

hMC1-R [3] = biological target: T3, hMC1-R (Homo sapiens, UniProt Q01726); assay: cyclic AMP bioassay, hMC1-R; assay type: cell-based
T3 construct: expressed in transfected cells; host or cells: CHO-K1

hMC3-R [4] = biological target: T1, hMC3-R; assay: cyclic AMP bioassay, hMC3-R; assay type: cell-based
Procedure: (§3) Intracellular cyclic AMP (cAMP) levels were determined by an electrochemiluminescence (ECL) assay (Meso Scale Discovery®, Gaithersburg, Md.; referred to hereinafter as MSD). […] Transgenic CHO-K1 cells stably expressing hMC receptor subtypes 1, 3, 4 or 5 were dispensed at a density of approximately 7,000 cells/well in 384-well Multi-Arrays plates (MSD) containing integrated carbon electrodes and coated with anti-CAMP antibody. Increasing concentrations of the test compounds were added and the cells were incubated for approximately 40 minutes at approximately 37° C. […] At the end of the second incubation period read buffer (Tris-buffered solution containing an ECL co-reactant and Triton X-100 at ph 7.8) was added and the cAMP levels in the cell lysates were immediately determined by ECL detection with a Sector Imager 6000 Reader® (MSD). Data were analyzed using a computer-assisted non-linear regression analysis (XL fit; IDBS) and reported as either an EC50 value or a Kb value.
(§4) The Kb value reflects the potency of an antagonist and is determined by Schild analysis. In brief, concentration-response curves of an agonist are carried out in the presence of increasing concentrations of an antagonist. […] It is calculated by extrapolating the line on a Schild plot to zero on the y-axis.

hMC4-R [5] = biological target: T2, hMC4-R; assay: cyclic AMP bioassay, hMC4-R; assay type: cell-based
hMC5-R [6] = biological target: T4, hMC5-R (Homo sapiens, UniProt P33032); assay: cyclic AMP bioassay, hMC5-R; assay type: cell-based
T4 construct: expressed in transfected cells; host or cells: CHO-K1
Procedure: as §3, §4

hMC1-R [7] = biological target: T3, hMC1-R; assay: Radioligand binding assay, hMC1-R
Procedure: as §1, §2

hMC5-R [8] = biological target: T4, hMC5-R; assay: Radioligand binding assay, hMC5-R
Procedure: as §1, §2

T1 sequence (P41968 whole entry): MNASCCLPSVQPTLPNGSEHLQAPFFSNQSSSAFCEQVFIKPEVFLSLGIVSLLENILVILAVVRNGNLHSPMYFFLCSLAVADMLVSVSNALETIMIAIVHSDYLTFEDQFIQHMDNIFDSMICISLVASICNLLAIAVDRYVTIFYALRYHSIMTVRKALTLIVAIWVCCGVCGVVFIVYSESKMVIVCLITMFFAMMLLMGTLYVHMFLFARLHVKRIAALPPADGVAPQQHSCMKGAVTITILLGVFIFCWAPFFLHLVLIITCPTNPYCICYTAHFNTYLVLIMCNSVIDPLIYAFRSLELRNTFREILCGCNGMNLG
T2 sequence (P32245 whole entry): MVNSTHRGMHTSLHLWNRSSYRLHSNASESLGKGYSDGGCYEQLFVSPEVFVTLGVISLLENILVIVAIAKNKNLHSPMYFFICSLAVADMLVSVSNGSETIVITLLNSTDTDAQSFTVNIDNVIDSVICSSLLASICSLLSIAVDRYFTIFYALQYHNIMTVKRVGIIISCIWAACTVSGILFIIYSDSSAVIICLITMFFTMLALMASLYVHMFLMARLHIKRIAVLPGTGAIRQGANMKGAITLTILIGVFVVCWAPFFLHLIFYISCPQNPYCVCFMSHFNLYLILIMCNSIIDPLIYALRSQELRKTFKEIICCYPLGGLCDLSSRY
T4 sequence (P33032 whole entry): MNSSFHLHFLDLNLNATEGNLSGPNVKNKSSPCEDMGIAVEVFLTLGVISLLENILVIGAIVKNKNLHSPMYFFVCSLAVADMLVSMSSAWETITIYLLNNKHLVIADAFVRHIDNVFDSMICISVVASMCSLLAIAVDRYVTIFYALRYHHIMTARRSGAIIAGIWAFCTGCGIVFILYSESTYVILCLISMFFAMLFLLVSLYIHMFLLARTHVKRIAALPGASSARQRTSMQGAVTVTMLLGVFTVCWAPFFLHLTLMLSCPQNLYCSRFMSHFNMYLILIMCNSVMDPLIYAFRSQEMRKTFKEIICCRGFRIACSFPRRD
T3 sequence (Q01726 whole entry): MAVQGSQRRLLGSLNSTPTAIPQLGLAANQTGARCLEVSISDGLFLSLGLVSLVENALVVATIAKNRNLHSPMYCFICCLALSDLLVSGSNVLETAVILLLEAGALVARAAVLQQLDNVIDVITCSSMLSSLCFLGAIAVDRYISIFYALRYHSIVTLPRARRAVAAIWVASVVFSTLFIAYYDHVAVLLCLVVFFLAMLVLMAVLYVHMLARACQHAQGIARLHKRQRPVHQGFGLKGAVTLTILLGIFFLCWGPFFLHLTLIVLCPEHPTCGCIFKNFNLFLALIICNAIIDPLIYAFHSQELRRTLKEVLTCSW

SMILES	pKi (hMC3-R [1])	pKi (hMC4-R [2])	pEC50 (hMC1-R [3])	pEC50 (hMC3-R [4])	pEC50 (hMC4-R [5])	pEC50 (hMC5-R [6])	pKi (hMC1-R [7])	Kb (hMC3-R [4]) [nM]	Kb (hMC4-R [5]) [nM]	pKi (hMC5-R [8])
CCCC[C@H](NC(C)=O)C(=O)N[C@H]1CSSC[C@@H](C(=O)NCCC(=O)NCC(=O)N[C@@H](CCCNC(=N)N)C(=O)N[C@@H](CCCCN)C(=O)N[C@@H](CCCNC(=N)N)C(=O)N[C@@H](CCCNC(=N)N)C(=O)N[C@@H](CCCNC(=N)N)C(=O)N[C@@H](CCC(N)=O)C(=O)N[C@@H](CCCNC(=N)N)C(=O)N[C@@H](CCCNC(=N)N)C(=O)N[C@@H](CCCNC(=N)N)C(N)=O)NC(=O)[C@H](Cc2c[nH]c3ccccc23)NC(=O)[C@H](CCCNC(=N)N)NC(=O)[C@@H](Cc2ccccc2)NC(=O)[C@H](Cc2c[nH]cn2)NC(=O)[C@@H](C)NC1=O	8.92	9.53	8.55	8.48	9.53	6.25	–	–	–	–
CC(=O)N[C@H]1CSSC[C@@H](C(=O)N2CCC[C@H]2C(=O)N2CCC[C@H]2C(=O)N[C@@H](CCCCN)C(=O)N[C@@H](CC(=O)O)C(=O)NCCC(=O)NCC(=O)N[C@@H](CCCNC(=N)N)C(=O)N[C@@H](CCCCN)C(=O)N[C@@H](CCCNC(=N)N)C(=O)N[C@@H](CCCNC(=N)N)C(=O)N[C@@H](CCCNC(=N)N)C(=O)N[C@@H](CCC(N)=O)C(=O)N[C@@H](CCCNC(=N)N)C(=O)N[C@@H](CCCNC(=N)N)C(=O)N[C@@H](CCCNC(=N)N)C(N)=O)NC(=O)[C@H](C)NC(=O)[C@H](Cc2ccc3ccccc3c2)NC(=O)[C@H](CCCNC(=N)N)NC(=O)[C@@H](Cc2ccc3ccccc3c2)NC(=O)[C@H](Cc2c[nH]cn2)NC(=O)[C@H](CCC(=O)O)NC1=O	–	–	6.51	–	–	6.24	8.25	22.8	17.1	–
CCCC[C@H](NC(C)=O)C(=O)N[C@H]1CSSC[C@@H](C(=O)NCCC(=O)N[C@@H](CCCNC(=N)N)C(=O)N[C@@H](CCCCN)C(=O)N[C@@H](CCCNC(=N)N)C(=O)N[C@@H](CCCNC(=N)N)C(=O)N[C@@H](CCCNC(=N)N)C(=O)N[C@@H](CCC(N)=O)C(=O)N[C@@H](CCCNC(=N)N)C(=O)N[C@@H](CCCNC(=N)N)C(=O)N[C@@H](CCCNC(=N)N)C(N)=O)NC(=O)[C@H](Cc2c[nH]c3ccccc23)NC(=O)[C@H](CCCNC(=N)N)NC(=O)[C@@H](Cc2ccccc2)NC(=O)[C@H](Cc2c[nH]cn2)NC(=O)[C@@H](C)NC1=O	8.91	9.33	8.69	8.79	9.40	6.70	9.11	–	–	7.33
CCCC[C@H](NC(C)=O)C(=O)N[C@H]1CSSC[C@@H](C(=O)NCCC(=O)N[C@@H](CCCNC(=N)N)C(=O)N[C@@H](CCCNC(=N)N)C(=O)N[C@@H](CCCCN)C(=O)N[C@@H](CCCNC(=N)N)C(=O)N[C@@H](CCCNC(=N)N)C(=O)N[C@@H](CCC(N)=O)C(=O)N[C@@H](CCCNC(=N)N)C(=O)N[C@@H](CCCNC(=N)N)C(=O)N[C@@H](CCCNC(=N)N)C(N)=O)NC(=O)[C@H](Cc2c[nH]c3ccccc23)NC(=O)[C@H](CCCNC(=N)N)NC(=O)[C@@H](Cc2ccccc2)NC(=O)[C@H](Cc2c[nH]cn2)NC(=O)[C@@H](C)NC1=O	8.91	9.32	8.73	8.86	9.44	6.78	9.67	–	–	7.23
CC(=O)N[C@H]1CSSC[C@@H](C(=O)N2CCC[C@H]2C(=O)N2CCC[C@H]2C(=O)N[C@@H](CCCCN)C(=O)N[C@@H](CC(=O)O)C(=O)NCCC(=O)N[C@@H](Cc2ccc(O)cc2)C(=O)NCC(=O)N[C@@H](CCCNC(=N)N)C(=O)N[C@@H](CCCNC(=N)N)C(=O)N[C@@H](CCCCN)C(=O)N[C@@H](CCCNC(=N)N)C(=O)N[C@@H](CCCNC(=N)N)C(=O)N[C@@H](CCC(N)=O)C(=O)N[C@@H](CCCNC(=N)N)C(=O)N[C@@H](CCCNC(=N)N)C(=O)N[C@@H](CCCNC(=N)N)C(N)=O)NC(=O)[C@H](C)NC(=O)[C@H](Cc2ccc3ccccc3c2)NC(=O)[C@H](CCCNC(=N)N)NC(=O)[C@@H](Cc2ccc3ccccc3c2)NC(=O)[C@H](Cc2c[nH]cn2)NC(=O)[C@H](CCC(=O)O)NC1=O	8.95	–	7.23	–	–	6.34	–	39.3	10.3	7.82
CC(=O)N[C@H]1CSSC[C@@H](C(=O)N2CCC[C@H]2C(=O)N2CCC[C@H]2C(=O)N[C@@H](CCCCN)C(=O)N[C@@H](CC(=O)O)C(=O)NCCC(=O)N[C@@H](CCCNC(=N)N)C(=O)N[C@@H](CCCNC(=N)N)C(=O)N[C@@H](CCCNC(=N)N)C(=O)N[C@@H](CCCNC(=N)N)C(=O)N[C@@H](CCCNC(=N)N)C(=O)N[C@@H](CCCNC(=N)N)C(=O)N[C@@H](CCC(N)=O)C(=O)N[C@@H](CCCNC(=N)N)C(=O)N[C@@H](CCCNC(=N)N)C(=O)N[C@@H](CCCNC(=N)N)C(N)=O)NC(=O)[C@H](C)NC(=O)[C@H](Cc2ccc3ccccc3c2)NC(=O)[C@H](CCCNC(=N)N)NC(=O)[C@@H](Cc2ccc3ccccc3c2)NC(=O)[C@H](Cc2c[nH]cn2)NC(=O)[C@H](CCC(=O)O)NC1=O	–	–	7.54	–	–	–	8.44	13.6	13.4	–
